{"source": "patent US9295679B2", "about": "“Prodrugs of C-17-heteroaryl steroidal CYP17 inhibitors/antiandrogens: synthesis, in vitro biological activities, pharmacokinetics and antitumor activity” (University of Maryland, Baltimore, priority 2008, dated 2016)", "key": {"LNCaP": {"test_system": "LNCaP", "test": "MTT cell viability assay, LNCaP", "format": "cell-based, human", "details": "96 hours exposure", "protocol": "All cell lines were obtained from American Type Culture Collection (Rockville, Md.) and maintained in RPMI 1640 media supplemented with 10% fetal bovine serum and 5% penicillin/streptomycin solution. Cells were grown as a monolayer in a humidified incubator (5% CO2) at 37° C. To determine the effect of the compounds on cell proliferation, cells were plated (2500 cells/well) in 96-well cell culture dishes (Corning, Inc. Corning, N.Y.). After a 24 hr attachment period, media was replaced with fresh media containing compounds (0.01 μM-100 μM) or vehicle (95% ethanol). The cells were then allowed to grow in the presence of the drugs for 96 hours. After 96 hours, relative cell viability was assessed using the MTT reagent (3-(4,5-dimethylthiazol-2-yl)-2,5-diphenyltetrazolium bromide) as described in Patel, et al. 2004^43. Experiments were carried out three times with six replicates per dose per experiment (n=18). Results were plotted using the average of each dose over all three experiments and fitted with a best-fit sigmoidal dose response variable slope curve using GraphPad Prism 4.01 (GraphPad Software, Inc.). […] Combination index (CI) was calculated as previously described^44. CI values less than 1 are considered synergistic."}, "PC-3 cells [1]": {"test_system": "PC-3 cells", "test": "Microarray global gene expression in PC-3 cells", "format": "cell-based", "details": "20 μM, 24 hrs", "protocol": "After 24 hour exposure to the agent, total RNA was isolated using the Qiagen RNeasy-Mini Kit following the manufacturer's protocol. Experiments were carried out in duplicate, with triplicate samples (dosed independently on 3 different days) from each experiment pooled for analysis on a single chip. Samples were hybridized to a GeneChip® Human Genome Focus Array (Affymetrix Inc., U.S.A.) and analyzed using an Affymetrix Genechip® Scanner 3000 according to the manufacturer's protocol. Gene ontologies were identified using the online Database for Annotation, Visualization, and Integrated Discovery (DAVID) provided by the National Institute of Allergy and Infectious Diseases and the National Institute of Health. […] Stringent criteria of a minimum EASE/P-Value threshold of 0.001 and a gene count threshold of 5 were used to identify altered gene ontologies."}, "PC-3 cells [2]": {"test_system": "PC-3 cells", "test": "Western blot of ERSR related proteins in PC-3 cells", "format": "cell-based", "protocol": "Protein was isolated, subjected to SDS-PAGE, transferred and imaged as previously described^45. All primary antibodies were purchased from Cell Signaling (Danvers, Mass.). Quantitation of relative protein expression was determined via densitometry using the software ImageQuant 5.0 (Molecular Dynamics) with each protein normalized to its respective loading control. Results represent the average of at least three independent experiments, with representative blots shown."}, "[3]": {"test_system": "androgen-dependent LAPC4 human prostate tumor xenograft", "details": "cited from earlier work"}}, "note": "Entries after “also recorded” stand apart in the source; their conditions may differ.", "data": [{"smiles": "C[C@]12CC[C@H](O)CC1=CC[C@@H]1[C@@H]2CC[C@]2(C)C(n3cnc4ccccc43)=CC[C@@H]12", "note": "[Compound 5, 3β-hydroxy-17-(1H-benzimidazole-1-yl)androsta-5,16-diene]", "values": [{"measurement": "GI90", "setting": "LNCaP", "value": 31.99, "unit": "µM"}, {"measurement": "GI50", "setting": "LNCaP; Homo sapiens", "value": 3.15, "unit": "µM"}, {"measurement": "down-regulated gene ontologies", "setting": "PC-3 cells [1]", "value": "associated with the cell cycle, especially S-phase (DNA replication)"}, {"measurement": "most enriched up-regulated gene ontologies", "setting": "PC-3 cells [1]", "value": "those relating to stress and metabolism, in particular amino acid metabolism"}, {"measurement": "S100P calcium binding protein gene expression", "setting": "PC-3 cells [1]; validated by qRT-PCR", "value": "most highly up-regulated gene"}, {"measurement": "phosphorylation of eIF2α", "setting": "PC-3 cells [2]; 20 μM, 6 and 24 hours, PC-3", "value": "induced the phosphorylation of eIF2α"}, {"measurement": "cyclin D1 protein", "setting": "PC-3 cells [2]; PC-3, after 24 hrs", "value": "down-regulation of cyclin D1 protein significantly"}, {"measurement": "reduction in the mean final tumor volume compared with controls", "setting": "[3]; 50 mg/kg/twice daily, P=0.00065", "value": 93.8, "unit": "%"}, {"measurement": "effect on growth of LAPC4 tumor xenograft", "setting": "[3]; Compound 6 at 0.15 mmol/kg twice daily", "value": "very effective; also recorded: marked suppression"}]}]}
